From US7960393B2, “Pyrimidine derivatives useful for the treatment of diseases mediated by CRTH2” (Actimis Pharmaceuticals, Inc., priority 2002, dated 2011) come the findings set out here.

As a reminder, the melting point is the temperature, or range, at which the solid turns liquid.

In series [1] the target is T1, human CRTH2 (Homo sapiens, UniProt Q9Y5Y4).
T1 construct: expressed in transfected cells; host or cells: L1.2 cells, pEAK expression vector, puromycin-selected
T1 sequence (Q9Y5Y4 1-395): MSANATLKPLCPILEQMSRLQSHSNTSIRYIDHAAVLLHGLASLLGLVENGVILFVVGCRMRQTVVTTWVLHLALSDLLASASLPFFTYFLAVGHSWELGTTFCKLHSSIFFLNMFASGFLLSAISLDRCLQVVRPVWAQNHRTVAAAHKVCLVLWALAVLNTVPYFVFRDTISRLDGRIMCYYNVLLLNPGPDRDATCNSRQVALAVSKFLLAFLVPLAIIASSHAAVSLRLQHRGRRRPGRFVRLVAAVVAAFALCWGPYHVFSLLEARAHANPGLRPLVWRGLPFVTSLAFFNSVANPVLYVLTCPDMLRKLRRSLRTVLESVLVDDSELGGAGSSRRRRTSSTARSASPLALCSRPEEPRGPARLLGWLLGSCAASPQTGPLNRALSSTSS
As to the kind of experiment: Measurement of Ca2+ mobilization in the human CRTH2-transfected L1.2 cell line (Assay 1). Conditions: PGD2-induced Ca2+ mobilization in CRTH2-transfected L1.2 cells; compounds as yielded by solid phase synthesis, purity about 40 to 90%; read-out: Activity class. In kind it is cell-based. Here is the method: Human CRTH2 cDNA was amplified from human eosinophil cDNA with gene specific primers containing restriction sites for cloning into pEAK vector (Edge Bio Systems). The human CRTH2 cDNA was cloned into the mammalian expression vector pEAK. This expression plasmid (40 μg) was transfected into L1.2 cells, at a cell density of 1×10^7 cells/500 μl, by using electroporation apparatus (Gene Pulser II, BioRad) at 250V/1,000 μF. One day after the transfection, puromycin (1 μg/ml, Sigma) was added into the cell culture plates. Two weeks after the transfection, grown cells were picked up for further growth.
[Measurement of Ca^2+ Mobilization in the Human CRTH2-Transfected L1.2 Cell Line] (Assay 1)
Ca^2+ loading buffer was prepared by mixing 5 μl of Fluo-3AM (2 mM in DMSO, final 1 μM, Molecular Probes) and 10 μl of pluronic F-127 (Molecular Probes) and diluting the resulting mixture in 10 ml of Ca^2+ assay buffer (20 mM HEPES pH 7.6, 0.1% BSA, 1 mM probenecid, Hanks' solution). The CRTH2 transfected cells which were prepared in Example 1 were washed with PBS, resuspended in Ca^2+ loading buffer at 1×10^7 cells/ml, and incubated for 60 min at room temperature. After incubation, cells were washed and resuspended in Ca^2+ assay buffer, then dispensed into transparent-bottom 96-well plates (#3631, Costar) at 2×10^5 cells/well. Cells were incubated with various concentrations of test compound for 5 minutes at room temperature. The emitted 480 nm fluorescence was measured on FDSS6000, a Ca^2+-measurement apparatus (Hamamatsu Photonics, Hamamatsu, Japan).
Assay results in Assay 1 are shown in Examples and tables of the Examples below. The data corresponds to the compounds as yielded by solid phase synthesis and thus to levels of purity of about 40 to 90%. For practical reasons, the compounds are grouped in four classes of activity as follows: IC50=A(< or =)10 nM<B(< or =)100 nM<C(< or =)500 nM<D
In general terms: Calcium assays in cells follow changes in intracellular calcium, usually with a dye or a luminescent sensor.

For the compound `CN(CC(=O)NC1CCCC1)c1nc(Cc2ccc(NC(=O)c3ccccn3)cc2)nc(Cl)c1CC(=O)O` [Example 1-2], the melting point is > 135 °C. For the same compound, the IC50 in series [1] was > 500 nM.

Compound `CN(CC(=O)N1CCCC1)c1nc(Cc2ccc(NC(=O)c3ccc4ccccc4c3)cc2)nc(Cl)c1CC(=O)O` [Example 1-3] registered a melting point of 177 °C. The IC50 in series [1] was < 10 nM.

For the compound `CN(CC(=O)NC1CCCC1)c1nc(Cc2ccc(NC(=O)c3cccnc3)cc2)nc(Cl)c1CC(=O)O` [Example 1-4], the melting point is > 174 °C. Also, in series [1], the IC50 was > 500 nM.

`CC(C)C(=O)Nc1ccc(Cc2nc(Cl)c(CC(=O)O)c(N(C)CC(=O)NC3CCCC3)n2)cc1` [Example 1-5]: the melting point was > 142 °C. In series [1], the IC50 was > 500 nM.

As for `CN(CC(=O)NC1CCCC1)c1nc(Cc2ccc(NC(=O)C3CC3)cc2)nc(Cl)c1CC(=O)O` [Example 1-6], the melting point is > 146 °C. Also, the IC50 in series [1] was > 500 nM.

`CC(C)NC(=O)CN(C)c1nc(Cc2ccc(NC(=O)c3ccc4ccccc4c3)cc2)nc(Cl)c1CC(=O)O` [Example 1-7] displayed a melting point of 181 °C. Moreover, the IC50 in series [1] is < 10 nM.

`CN(CC(=O)NC1CCCCC1)c1nc(Cc2ccc(NC(=O)c3ccc4ccccc4c3)cc2)nc(Cl)c1CC(=O)O` [Example 1-8] gave a melting point of 134 °C. For the same compound, in series [1], the IC50 was < 10 nM.

As for `CN(CC(=O)NC1CCCC1)c1nc(Cc2ccc(NC(=O)c3ccccc3)cc2)nc(Cl)c1CC(=O)O` [Example 1-9], the melting point is > 140 °C. Besides, the IC50 in series [1] lay within 10 to 100 nM.

As to `CC(=O)Nc1ccc(Cc2nc(Cl)c(CC(=O)O)c(N(C)CC(=O)NC3CCCC3)n2)cc1` [Example 1-10], the melting point was > 118 °C. Also, in series [1], the IC50 is > 500 nM.

`CN(CC(=O)NC1CCCC1)c1nc(Cc2ccc(NC(=O)c3ccco3)cc2)nc(Cl)c1CC(=O)O` [Example 1-11]: the melting point was > 119 °C. Further, in series [1], the IC50 was in the range of 100 to 500 nM.

As for `CCCCCC(=O)Nc1ccc(Cc2nc(Cl)c(CC(=O)O)c(N(C)CC(=O)NC3CCCC3)n2)cc1` [Example 1-12], the melting point is > 100 °C. In addition, in series [1], the IC50 lay within 100 to 500 nM.

With `CN(CC(=O)NC1CCCC1)c1nc(Cc2ccc(NC(=O)CC3CCCCC3)cc2)nc(Cl)c1CC(=O)O` [Example 1-13], the melting point is > 149 °C. The IC50 in series [1] lay within 10 to 100 nM.

On to `CN(CC(=O)NC1CCCC1)c1nc(Cc2ccc(NC(=O)CCc3ccccc3)cc2)nc(Cl)c1CC(=O)O` [Example 1-14], for which the melting point is > 139 °C. Also, the IC50 in series [1] was < 10 nM.

In the case of `Cc1ccc(CC(=O)Nc2ccc(Cc3nc(Cl)c(CC(=O)O)c(N(C)CC(=O)NC4CCCC4)n3)cc2)cc1` [Example 1-15], the melting point was > 116 °C. The IC50 in series [1] lay within 10 to 100 nM.

On to `CN(CC(=O)NC1CCCC1)c1nc(Cc2ccc(NC(=O)c3ccc4ccccc4n3)cc2)nc(Cl)c1CC(=O)O` [Example 1-16], for which the melting point is 137 °C. In addition, the IC50 in series [1] is < 10 nM.

On to `CN(CC(=O)NC1CCCC1)c1nc(Cc2ccc(NC(=O)/C=C/c3ccccc3)cc2)nc(Cl)c1CC(=O)O` [Example 1-17], for which the melting point stood at 142 °C. The IC50 in series [1] is < 10 nM.

Compound `CN(CC(=O)NC1CCCC1)c1nc(Cc2ccc(NC(=O)c3ccc(Cl)cc3)cc2)nc(Cl)c1CC(=O)O` [Example 1-18] had a melting point of 143 °C. For the same compound, the IC50 in series [1] is < 10 nM.

In the case of `CN(CC(=O)NC1CCCC1)c1nc(Cc2ccc(NC(=O)c3ccc(Cl)c(Cl)c3)cc2)nc(Cl)c1CC(=O)O` [Example 1-19], the melting point worked out at 144 °C. For the same compound, in series [1], the IC50 was < 10 nM.

Turning to `COc1ccc(C(=O)Nc2ccc(Cc3nc(Cl)c(CC(=O)O)c(N(C)CC(=O)NC4CCCC4)n3)cc2)cc1` [Example 1-20], the melting point stood at 104 °C. Besides, the IC50 in series [1] was < 10 nM.

Compound `Cc1ccc(C(=O)Nc2ccc(Cc3nc(Cl)c(CC(=O)O)c(N(C)CC(=O)NC4CCCC4)n3)cc2)cc1` [Example 1-21] returned a melting point of 125 °C. Moreover, the IC50 in series [1] was < 10 nM.

`CN(CC(=O)NC1CCCC1)c1nc(Cc2ccc(NC(=O)c3cccc4ccccc34)cc2)nc(Cl)c1CC(=O)O` [Example 1-22] had a melting point of 136 °C. In series [1], the IC50 is 10 to 100 nM.

Take `CN(CC(=O)NC1CCCC1)c1nc(Cc2ccc(NS(=O)(=O)c3ccc4ccccc4c3)cc2)nc(Cl)c1CC(=O)O` [Example 1-23]: the melting point was found to be 116 °C. The IC50 in series [1] is > 500 nM.

In turn, `CN(CC(=O)NC1CCCC1)c1nc(Cc2ccc(NC(=O)Cc3ccc(-c4ccccc4)cc3)cc2)nc(Cl)c1CC(=O)O` [Example 1-24] yielded a melting point of 124 °C. In series [1], the IC50 lay within 100 to 500 nM.

Turning to `CN(CC(=O)NC1CCCC1)c1nc(Cc2ccc(NC(=O)c3cc4ccccc4o3)cc2)nc(Cl)c1CC(=O)O` [Example 1-25], the melting point came out at 118 °C. For the same compound, the IC50 in series [1] is < 10 nM.

Compound `CN(CC(=O)NC1CCCC1)c1nc(Cc2ccc(NC(=O)c3cc4ccccc4[nH]3)cc2)nc(Cl)c1CC(=O)O` [Example 1-26] came in with a melting point of 146 °C. In series [1], the IC50 is < 10 nM.

For `CN(CC(=O)NC1CCCC1)c1nc(Cc2ccc(NC(=O)c3ccc(C#N)cc3)cc2)nc(Cl)c1CC(=O)O` [Example 1-27], the melting point turned out to be 101 °C. The IC50 in series [1] is < 10 nM.

As to `CN(CC(=O)NC1CCCC1)c1nc(Cc2ccc(NC(=O)CC3Cc4ccccc4C3)cc2)nc(Cl)c1CC(=O)O` [Example 1-28], the melting point was > 110 °C. Moreover, the IC50 in series [1] was < 10 nM.

Turning to `CN(CC(=O)NC1CCCC1)c1nc(Cc2ccc(NC(=O)Cc3ccc4c(c3)OCO4)cc2)nc(Cl)c1CC(=O)O` [Example 1-29], the melting point is > 120 °C. Also, the IC50 in series [1] was 100 to 500 nM.

Turning to `CN(CC(=O)NC1CCCC1)c1nc(Cc2ccc(NC(=O)Cc3cccc(Oc4ccccc4)c3)cc2)nc(Cl)c1CC(=O)O` [Example 1-30], the melting point is > 118 °C. Moreover, in series [1], the IC50 was < 10 nM.

As for `CN(CC(=O)NC1CCCC1)c1nc(Cc2ccc(NC(=O)Cc3ccc(Oc4ccccc4)cc3)cc2)nc(Cl)c1CC(=O)O` [Example 1-31], the melting point is > 123 °C. For the same compound, in series [1], the IC50 is 10 to 100 nM.

`CN(C)c1nc(Cc2ccc(NC(=O)c3ccc4ccccc4n3)cc2)nc(Cl)c1CC(=O)O` [Example 1-32] yielded a melting point of 135 to 142 °C. Besides, in series [1], the IC50 was < 10 nM.

`CN(C)c1nc(Cc2ccc(NC(=O)/C=C/c3ccccc3)cc2)nc(Cl)c1CC(=O)O` [Example 1-33]: the melting point is > 160 °C. For the same compound, the IC50 in series [1] is < 10 nM.

Compound `CN(C)c1nc(Cc2ccc(NC(=O)c3ccc4ccccc4c3)cc2)ncc1CC(=O)O` [Example 2-1, {4-(Dimethylamino)-2-[4-(2-naphthoylamino)benzyl]pyrimidin-5-yl}acetic acid] registered a melting point of 210 °C.

For the compound `Cc1nc(Cc2ccc(NC(=O)c3ccc(Cl)c(Cl)c3)cc2)nc(N(C)C)c1CC(=O)O` [Example 8-4], the IC50 in series [1] is < 10 nM.

On to `Cc1nc(Cc2ccc(NC(=O)/C=C/c3ccccc3)cc2)nc(N(C)C)c1CC(=O)O` [Example 8-5], for which the IC50 in series [1] was < 10 nM.

As to `CN(C)c1nc(Cc2ccc(NC(=O)OCc3ccc([N+](=O)[O-])cc3)cc2)ncc1CC(=O)O` [Example 9-4], in series [1], the IC50 lay within 10 to 100 nM.

`CN(C)c1nc(Cc2ccc(NC(=O)c3ccc4ccccc4c3)cc2)nc(Cl)c1CC(N)=O` [Example 11, N-(4-{[5-(2-Amino-2-oxoethyl)-4-chloro-6-(dimethylamino)pyrimidin-2-yl]methyl}phenyl)-2-naphthamide] came in with a melting point of 189 to 190 °C.

In the case of `CN(C)c1nc(Cc2ccc(NC(=O)c3ccc4ccccc4c3)cc2)nc(Cl)c1CC#N` [Example 12, N-(4-{[4-Chloro-5-(cyanomethyl)-6-(dimethylamino)pyrimidin-2-yl]methyl}phenyl)-2-naphthamide], the IC50 in series [1] fell in the range of 100 to 500 nM.
